# Source: US8492396B2, “Therapeutic uses of adrenergic α-1 receptor antagonists” (SANOFI, priority 2007, dated 2013)
# What was measured:
# mice = assay: writhings evoked by intraperitoneal acetic acid in CYP-treated mice; assay type: in vivo; conditions: pre-treatment 30 μg/kg i.v., CYP 150 mg/kg i.p.
# Procedure: Male Sprague-Dawley rats and Swiss mice were administered with CYP (150 mg/kg, i.p.) or its vehicle (0.9% NaCl) for cystitis induction. 48 hours later urinary bladders were removed and placed in an organ bath for motor response measurement. Writhing behaviors and plasma protein extravasation were investigated 90 min after the CYP administration.
# [1] = test system: strips of rat urinary bladder; assay: eNANC contractile response to electrical field stimulation in isolated urinary bladder strips from CYP-treated rats; assay type: in vivo; conditions: intravenous pretreatment 30 μg/kg; bladders taken 48 h after CYP 150 mg/kg i.p.
# Procedure: Male Sprague-Dawley rats and Swiss mice were administered with CYP (150 mg/kg, i.p.) or its vehicle (0.9% NaCl) for cystitis induction. 48 hours later urinary bladders were removed and placed in an organ bath for motor response measurement. Writhing behaviors and plasma protein extravasation were investigated 90 min after the CYP administration. Strips of rat urinary bladder were taken from terminally anesthetized animals and mounted in organ baths and after an equilibration period the eNANC contractile response to electrical field stimulation (EFS, 5 Hz, 1 ms width, 10 V) in the absence and presence of atropine (1 μM) is studied (Rigoni et al., 2003, Br J Pharmacol, 138, 977-85) The contraction produced by EFS in these experimental conditions is entirely mediated by SP and NKA released from terminals of primary sensory neurons. The eNANC response to EFS was reproducible at 60 min intervals. The effect of alfuzosin or its vehicle on the eNANC response to EFS was studied in parallel experiments. At the beginning or end of each experiment tissues were challenged with carbachol (1 μM). The effect of alfuzosin was studied also in bladder strips obtained from rats treated with cyclophosphamide. […]
# [2] = test system: urinary bladder taken from CYP-treated rats; assay: contractile response to capsaicin in urinary bladder taken from CYP-treated rats; assay type: in vivo, rat; conditions: pretreatment with alfuzosin; bladders from CYP-treated rats
# Procedure: Male Sprague-Dawley rats and Swiss mice were administered with CYP (150 mg/kg, i.p.) or its vehicle (0.9% NaCl) for cystitis induction. 48 hours later urinary bladders were removed and placed in an organ bath for motor response measurement. Writhing behaviors and plasma protein extravasation were investigated 90 min after the CYP administration. […] The eNANC response to EFS was reproducible at 60 min intervals. The effect of alfuzosin or its vehicle on the eNANC response to EFS was studied in parallel experiments. At the beginning or end of each experiment tissues were challenged with carbachol (1 μM). The effect of alfuzosin was studied also in bladder strips obtained from rats treated with cyclophosphamide.
# urinary bladder = assay: CYP-evoked plasma protein extravasation (Evans blue) in urinary bladder; assay type: in vivo; conditions: CYP 150 mg/kg i.p., 90 min after CYP; ruthenium red 4 mg/kg s.c.; camphor 50 μmol/kg i.p.
# Procedure: Male Sprague-Dawley rats and Swiss mice were administered with CYP (150 mg/kg, i.p.) or its vehicle (0.9% NaCl) for cystitis induction. 48 hours later urinary bladders were removed and placed in an organ bath for motor response measurement. Writhing behaviors and plasma protein extravasation were investigated 90 min after the CYP administration. Intraperitoneal administration of cyclophosphamide (150 mg/kg, 48 h before) is known to decrease bladder capacity and increased micturition frequency (Maggi et al., 1992, J Auton Nerv Syst, 38, 201-8). These effects of cyclophosphamide were abolished in rats pretreated with capsaicin as adults (Maggi et al., 1992, J Auton Nerv Syst, 38, 201-8). Thus, the inflammatory responses to cyclophosphamide are mediated by neurogenic inflammatory mechanisms. Evans blue dye was used to measure plasma extravasation. The proinflammatory stimulus was given immediately after the injection of the dye (30 mg/kg i.v. over 5 s) in the jugular vein. The chest was opened 10 min or at different time intervals as required after the injection of Evans blue and the animal perfused for 3 min with a phosphate buffer. The urinary bladder, urethra and prostate were removed, blotted and weighed. […] The amount of Evans blue extravasated from the […] was measured using a spectrophotometer and expressed as ng/mg of wet weight.
structure (smiles),measurement,setting,value
COc1cc2nc(N(C)CCCNC(=O)C3CCCO3)nc(N)c2cc1OC (centres unmarked) [alfuzosin],reduction of the CYP-induced increase in number of writhings evoked by acetic acid,mice,48 % of reduction
same,"reversal of CYP-induced reduction of the contractile response to EFS (eNANC, in the presence of atropine)",[1],> 50 % of reversal
same,reversal of CYP-induced reduction of the contractile response to capsaicin,[2],~50 % of reversal
CC12CCC(CC1=O)C2(C)C (centres unmarked) [camphor],CYP-evoked plasma protein extravasation in urinary bladder,urinary bladder,completely prevented
N.N.N.N.N.N.N.N.N.N.N.N.N.N.[Cl-].[Cl-].[Cl-].[Cl-].[Cl-].[Cl-].[O-2].[O-2].[Ru+3].[Ru+3].[Ru+4] [ruthenium red],CYP-evoked plasma protein extravasation in urinary bladder,urinary bladder,completely prevented
